In brackets after ≈: the same amount, converted by molar mass. Activity calls are given as the source filed them. The calls are words filed in the database; no cut-off is given here.

The test system of one test is Escherichia coli. Nature of the test: Antimicrobial activity against Escherichia coli after 24 hr by serial dilution method. In kind it is functional.
Test [1] has as its system Klebsiella pneumoniae. Briefly: Antimicrobial activity against Klebsiella pneumoniae after 24 hr by serial dilution method. In kind it is functional.
For test [2], the system named is Pseudomonas aeruginosa. Briefly: Antimicrobial activity against Pseudomonas aeruginosa after 24 hr by serial dilution method. In kind it is functional.
Test [3] has as its system Enterococcus faecalis. Nature of the test: Antimicrobial activity against Enterococcus faecalis after 24 hr by serial dilution method. In kind it is functional.
A further test relates to Bacillus subtilis. Briefly: Antimicrobial activity against Bacillus subtilis after 24 hr by serial dilution method. In kind it is functional.
For test [4], the system named is Candida. Nature of the test: Antimicrobial activity against Candida-51 after 72 to 96 hr by serial dilution method. In kind it is functional.
The test system of test [5] is Pseudomonas aeruginosa. Briefly: Antimicrobial activity against Pseudomonas aeruginosa at 100 ug/ml after 24 hr by serial dilution method. It counts as functional, organism-based.
The test system of test [6] is Candida. Nature of the test: Antimicrobial activity against Candida 6 after 72 to 96 hr by serial dilution method. In kind it is functional.
Test [7] concerns Cryptococcus neoformans. Briefly: Antimicrobial activity against Cryptococcus neoformans at 200 ug/ml after 72 to 96 hr by serial dilution method. It counts as functional, organism-based.
Test [8] has as its system Aspergillus niger. Nature of the test: Antimicrobial activity against Aspergillus niger at 100 ug/ml after 72 to 96 hr by serial dilution method. It counts as functional, organism-based.
For test [9], the system named is Aspergillus niger. Nature of the test: Antimicrobial activity against Aspergillus niger at 200 ug/ml after 72 to 96 hr by serial dilution method. It counts as functional, organism-based.
The test system of test [10] is Cryptococcus neoformans. Briefly: Antimicrobial activity against Cryptococcus neoformans at 100 ug/ml after 72 to 96 hr by serial dilution method. In kind it is functional, organism-based.
For test [11], the system named is Klebsiella pneumoniae. Briefly: Antimicrobial activity against Klebsiella pneumoniae at 100 ug/ml after 24 hr by serial dilution method. In kind it is functional, organism-based.
Test [12] deals with Aspergillus flavus. Nature of the test: Antimicrobial activity against Aspergillus flavus after 72 to 96 hr by serial dilution method. It counts as functional.
For test [13], the system named is Enterococcus faecalis. Nature of the test: Antimicrobial activity against Enterococcus faecalis at 100 ug/ml after 24 hr by serial dilution method. It counts as functional, organism-based.
The test system of test [14] is Aspergillus flavus. Briefly: Antimicrobial activity against Aspergillus flavus at 200 ug/ml after 72 to 96 hr by serial dilution method. It counts as functional, organism-based.
In test [15] the test system is Aspergillus flavus. Nature of the test: Antimicrobial activity against Aspergillus flavus at 100 ug/ml after 72 to 96 hr by serial dilution method. It counts as functional, organism-based.
The test system of test [16] is Aspergillus niger. Nature of the test: Antimicrobial activity against Aspergillus niger after 72 to 96 hr by serial dilution method. It counts as functional.
The test system of test [17] is Cryptococcus neoformans. Briefly: Antimicrobial activity against Cryptococcus neoformans after 72 to 96 hr by serial dilution method. In kind it is functional.

Consider `CN[C@@H]1[C@H](O[C@H]2[C@H](O[C@H]3[C@H](O)[C@@H](O)[C@H](N=C(N)N)[C@@H](O)[C@@H]3N=C(N)N)O[C@@H](C)[C@]2(O)C=O)O[C@@H](CO)[C@H](O)[C@H]1O` [STREPTOMYCIN], for which the MIC in the test on Escherichia coli came out at 12.5 µg/mL (≈ 21.5 µM); in the test with Klebsiella pneumoniae [1] it was 25 µg/mL (≈ 43 µM); in the test with Pseudomonas aeruginosa [2], 25 µg/mL (≈ 43 µM); in the test on Enterococcus faecalis [3], 50 µg/mL (≈ 86 µM); against Bacillus subtilis, 12.5 µg/mL (≈ 21.5 µM).

As to `CCC1C(=O)CC(c2ccco2)NC1c1ccco1` (stereo unspecified), the MIC against Candida [4] came out at 100 µg/mL (≈ 386 µM); in the test with Candida [6], 50 µg/mL (≈ 193 µM); in the test with Escherichia coli it was 25 µg/mL (≈ 96.4 µM); in the test with Aspergillus flavus [12], 100 µg/mL (≈ 386 µM); in the test on Enterococcus faecalis [3], 100 µg/mL (≈ 386 µM); against Bacillus subtilis, 25 µg/mL (≈ 96.4 µM). The inhibition entry in the test on Pseudomonas aeruginosa [5], in the test with Cryptococcus neoformans [7], in the test on Aspergillus niger [8], with Aspergillus niger [9], with Cryptococcus neoformans [10] and in the test on Klebsiella pneumoniae [11] was “inactive” in each case.

Regarding `CC1C(=O)CC(c2ccco2)NC1c1ccco1` (stereo unspecified), the minimum inhibitory concentration (MIC) turned out to be 100 µg/mL (≈ 408 µM) in the test with Candida [4], 100 µg/mL (≈ 408 µM) against Candida [6], 50 µg/mL (≈ 204 µM) against Escherichia coli and 50 µg/mL (≈ 204 µM) in the test with Bacillus subtilis. In addition, the inhibition result in the test with Enterococcus faecalis [13], with Pseudomonas aeruginosa [5], in the test on Aspergillus flavus [14], in the test on Cryptococcus neoformans [7], in the test with Aspergillus flavus [15] and in the test on Aspergillus niger [8] was “inactive” each time. Also, the inhibition entry in the test with Aspergillus niger [9], with Cryptococcus neoformans [10] and in the test on Klebsiella pneumoniae [11] was “inactive” in each case.

Regarding `CCC1/C(=N\O)CC(c2ccco2)NC1c1ccco1` (stereo unspecified), the MIC came out at 12.5 µg/mL (≈ 45.6 µM) in the test on Candida [4]; 25 µg/mL (≈ 91.1 µM) in the test on Candida [6]; 25 µg/mL (≈ 91.1 µM) in the test on Escherichia coli; 6.25 µg/mL (≈ 22.8 µM) in the test with Klebsiella pneumoniae [1]; 50 µg/mL (≈ 182 µM) against Aspergillus niger [16]; 12.5 µg/mL (≈ 45.6 µM) against Pseudomonas aeruginosa [2]. Moreover, the MIC with Cryptococcus neoformans [17] was 12.5 µg/mL (≈ 45.6 µM); in the test on Aspergillus flavus [12], 25 µg/mL (≈ 91.1 µM); in the test with Enterococcus faecalis [3], 25 µg/mL (≈ 91.1 µM); against Bacillus subtilis, 25 µg/mL (≈ 91.1 µM).

Turning to `CC1/C(=N\O)CC(c2ccco2)NC1c1ccco1` (stereo unspecified), the MIC came out at 12.5 µg/mL (≈ 48 µM) with Candida [4]; 50 µg/mL (≈ 192 µM) with Candida [6]; 12.5 µg/mL (≈ 48 µM) in the test with Escherichia coli; 12.5 µg/mL (≈ 48 µM) in the test on Klebsiella pneumoniae [1]; 100 µg/mL (≈ 384 µM) against Aspergillus niger [16]; 25 µg/mL (≈ 96 µM) with Pseudomonas aeruginosa [2]. Moreover, the MIC against Cryptococcus neoformans [17] amounted to 25 µg/mL (≈ 96 µM); in the test with Aspergillus flavus [12] it was 50 µg/mL (≈ 192 µM); in the test with Enterococcus faecalis [3], 25 µg/mL (≈ 96 µM); in the test on Bacillus subtilis it was 25 µg/mL (≈ 96 µM).

As for `CC1C(=O)C(C)C(c2ccco2)NC1c1ccco1` (stereo unspecified), the MIC with Candida [4] came to 50 µg/mL (≈ 193 µM); in the test with Candida [6] it was 50 µg/mL (≈ 193 µM); against Escherichia coli, 12.5 µg/mL (≈ 48.2 µM); against Klebsiella pneumoniae [1], 100 µg/mL (≈ 386 µM); in the test with Aspergillus niger [16], 100 µg/mL (≈ 386 µM); against Aspergillus flavus [12], 50 µg/mL (≈ 193 µM). Moreover, the minimal inhibitory concentration (MIC) came to 50 µg/mL (≈ 193 µM) against Enterococcus faecalis [3] and 12.5 µg/mL (≈ 48.2 µM) in the test with Bacillus subtilis. In addition, the inhibition entry with Pseudomonas aeruginosa [5], with Cryptococcus neoformans [7] and with Cryptococcus neoformans [10] was “inactive” each time.

Take `C[C@@H]1[C@H](O)[C@@H](C)/C=C/C=C/C=C/C=C/C=C/C=C/C=C/[C@H](O[C@@H]2O[C@H](C)[C@@H](O)[C@H](N)[C@@H]2O)C[C@@H]2O[C@](O)(C[C@@H](O)C[C@@H](O)[C@H](O)CC[C@@H](O)C[C@@H](O)CC(=O)O[C@H]1C)C[C@H](O)[C@H]2C(=O)O` [AMPHOTERICIN B]: the MIC against Candida [4] is 25 µg/mL (≈ 27.1 µM); with Candida [6] it was 25 µg/mL (≈ 27.1 µM); against Aspergillus niger [16], 50 µg/mL (≈ 54.1 µM); with Cryptococcus neoformans [17] it was 25 µg/mL (≈ 27.1 µM); with Aspergillus flavus [12], 50 µg/mL (≈ 54.1 µM).

Turning to `CC1C(=NO)C(C)C(c2ccco2)NC1c1ccco1` (stereo unspecified), the MIC against Candida [4] worked out at 12.5 µg/mL (≈ 45.6 µM); with Candida [6] it was 12.5 µg/mL (≈ 45.6 µM); in the test with Escherichia coli, 25 µg/mL (≈ 91.1 µM); in the test with Klebsiella pneumoniae [1], 6.25 µg/mL (≈ 22.8 µM); in the test on Aspergillus niger [16], 25 µg/mL (≈ 91.1 µM); against Pseudomonas aeruginosa [2], 50 µg/mL (≈ 182 µM). Moreover, the minimum inhibitory concentration (MIC) in the test with Cryptococcus neoformans [17] came out at 6.25 µg/mL (≈ 22.8 µM); in the test with Aspergillus flavus [12], 12.5 µg/mL (≈ 45.6 µM); with Enterococcus faecalis [3] it was 25 µg/mL (≈ 91.1 µM); in the test with Bacillus subtilis, 25 µg/mL (≈ 91.1 µM).

The record behind these values is ChEMBL document CHEMBL3045318, “Synthesis and Antimicrobial Evaluation of Some t(3)-Alkyl and t(3),t(5)-Dimethyl-r(2),c(6)-DI-2-Furfurylpiperidin-4-one and its Derivatives” (2005).
